Reference: publication PMC11790914, “Chemogenomics for steroid hormone receptors (NR3)” (Communications Chemistry, 2025)
Where “and” joins values, the source holds several entries; their conditions need not be identical. Equal values may be shown once.

Legend:
[1] = other targets with annotated bioactivities at ≤10 µM in previously published dataset; cited from earlier work
[2] = test system: NF-κB activity in HEK293 NF-κB reporter cells; test: NF-kB activity assay (GFP reporter, ionomycin/PMA); type: cell-based; details: for Mean NFκB response: n=3
Method: Fig. 6 Application of the NR3 CG set.
After 24 h, cells were incubated with the test compounds solubilized with 0.1% DMSO in the same medium without puromycin. After 4 h incubation, ionomycin (100 ng/mL) and phorbol-12-myristat-13-acetate (PMA, 10 ng/mL) was added, and the cells were imaged for confluence and GFP expression every 90 min. over 24 h using a Tecan SPARK Cyto (Tecan). The number of GFP expressing cells was normalized to confluence in each sample. Each sample was repeated in three biologically independent experiments.

HEK293T cells [3] = test: Cytotoxicity: metabolic activity (WST-8 / CCK-8 assay); details: 1 µM; HEK293T, 24 h; WST-8; normalized to 0.1% DMSO; single replicates
HEK293T cells [4] = test: Cytotoxicity: necrosis induction (red fluorescent dye for permeable plasma membranes); type: cell-based; details: 1 µM, 24 h, necrotic cell count normalized to 0.1% DMSO, single replicates;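 note: compounds applied in DMEM high glucose with 0.1% FCS and 0.1% DMSO, necrotic HEK293T cells counted by red staining of cells whose plasma membranes had become permeable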
HEK293T cells [5] = test: Cytotoxicity: growth-rate (change in confluence over 24 h); details: 1 µM, normalized to 0.1% DMSO control, single replicates (n=1...)
[6] = test system: ATF6 activity in Hela ATF6 reporter cells; test: Endoplasmic reticulum stress assay (ATF6 Renilla luciferase reporter, tunicamycin); type: cell-based; details: Homo sapiens, HeLa, 1 µM, single replicates n=1 to n=5; read-out: ER stress [rel. ATF6 activity]
Method: After 24 h, cells were incubated with the test compounds solubilized with 0.1% DMSO in the same medium without puromycin. After 4 h incubation, tunicamycin (100 ng/mL) was added. After another 18 h incubation, cells were assayed for renilla luminescence using DualGlo reagent (Promega) on a Tecan SPARK Cyto (Tecan). Test samples were normalized to the 0.1% DMSO control. Each sample was repeated in five biologically independent experiments.

HEK293T cells [7] = test: Cytotoxicity: apoptosis induction (caspase-3/7 DEVD fluorogenic DNA dye); details: 1 µM; HEK293T, 24 h; apoptotic cell count normalized to 0.1% DMSO; single replicates

Q: Which “Reason for exclusion: number of annotated off-targets” value (from here on “Reason for exclusion: number”) [1] does the source give for `CC(O)(CS(=O)(=O)c1ccc(F)cc1)C(=O)Nc1ccc(C#N)c(C(F)(F)F)c1` (centres unmarked) [Bicalutamide] here?
A: > 5 off-targets

Q: For `CC(=O)[C@H]1CC[C@H]2[C@@H]3CCC4=CC(=O)CC[C@]4(C)[C@H]3CC[C@]12C` [Progesterone], which “Reason for exclusion: number” value [1] is on record?
A: > 5 off-targets

Q: For `O=c1oc2cc(O)ccc2c2oc3cc(O)ccc3c12` [Coumestrol], which “Reason for exclusion: number” value [1] is on record?
A: > 5 off-targets

Q: With `CC/C(=C(\c1ccccc1)c1ccc(OCCN(C)C)cc1)c1ccccc1` [Tamoxifen] as the compound, how does the “Reason for exclusion: number” value [1] read?
A: > 5 off-targets

Q: For `C[C@]12CC[C@@H]3c4ccc(O)cc4CC[C@H]3[C@@H]1C[C@@H](O)[C@@H]2O` [Estriol], which “Reason for exclusion: number” value [1] is on record?
A: > 5 off-targets

Q: With `O=c1c(-c2ccc(O)cc2)coc2cc(O)cc(O)c12` [Genistein] as the compound, how does the “Reason for exclusion: number” value [1] read?
A: > 5 off-targets

Q: For `Oc1c(Cl)cc(Cl)c(Cl)c1Cc1c(O)c(Cl)cc(Cl)c1Cl` [Hexachlorophene], which “Reason for exclusion: number” value [1] is on record?
A: > 5 off-targets

Q: Which “Mean NFκB response” value ([2]; 1 µM, 1,5 h) does the source give for `CNC(=O)c1ccc(N2C(=S)N(c3ccc(C#N)c(C(F)(F)F)c3)C(=O)C2(C)C)cc1F` [Enzalutamide] here?
A: 4053.16 GFP+-cells/confluence ∙ 1000

Q: And the “Mean NFκB response” value ([2]; 1 µM, 4,5 h)?
A: 4748.63 GFP+-cells/confluence ∙ 1000

Q: What about the “Mean NFκB response” value ([2]; 1 µM, 7,5 h) of the same compound?
A: 9147.14 GFP+-cells/confluence ∙ 1000

Q: What about the “Mean NFκB response” value ([2]; 1 µM, 10,5 h) of the same compound?
A: 19308.05 GFP+-cells/confluence ∙ 1000

Q: What about the “Mean NFκB response” value ([2]; 1 µM, 13,5 h) of the same compound?
A: 27440.00 GFP+-cells/confluence ∙ 1000

Q: And the “Mean NFκB response” value ([2]; 1 µM, 16,6 h)?
A: 33976.67 GFP+-cells/confluence ∙ 1000

Q: And the “Mean NFκB response” value ([2]; 1 µM, 19,5 h)?
A: 37833.33 GFP+-cells/confluence ∙ 1000

Q: What about the “Mean NFκB response” value ([2]; 1 µM, 22,5 h) of the same compound?
A: 41216.67 GFP+-cells/confluence ∙ 1000

Q: What about the “Mean NFκB response” value ([2]; 1 µM, 3 h) of the same compound?
A: 4315.98 GFP+-cells/confluence ∙ 1000

Q: What about the “Mean NFκB response” value ([2]; 1 µM, 6 h) of the same compound?
A: 6007.28 GFP+-cells/confluence ∙ 1000

Q: What about the “Mean NFκB response” value ([2]; 1 µM, 9 h) of the same compound?
A: 14317.85 GFP+-cells/confluence ∙ 1000

Q: And the “Mean NFκB response” value ([2]; 1 µM, 12 h)?
A: 23650.00 GFP+-cells/confluence ∙ 1000

Q: What about the “Mean NFκB response” value ([2]; 1 µM, 15 h) of the same compound?
A: 31096.67 GFP+-cells/confluence ∙ 1000

Q: And the “Mean NFκB response” value ([2]; 1 µM, 18 h)?
A: 36023.33 GFP+-cells/confluence ∙ 1000

Q: What about the “Mean NFκB response” value ([2]; 1 µM, 21 h) of the same compound?
A: 39446.67 GFP+-cells/confluence ∙ 1000

Q: What about the “Mean NFκB response” value ([2]; 1 µM, 24 h) of the same compound?
A: 42106.67 GFP+-cells/confluence ∙ 1000

Q: And the “NF-κB activity (inflammatory response to ionomycin/PMA)” value ([2]; HEK293 NF-κB reporter cells, compounds at recommended concentrations, imaged over 24 h, n = 3)?
A: tended to enhance NF-κB activity

Q: And the “Metabolic activity [MA]” value (HEK293T cells [3])?
A: 1.02 and 1.04 and 1.01 (2×) and 0.98 and 1.13

Q: And the “Necrosis induction [NI]” value (HEK293T cells [4])?
A: 0.88 and 0.97 and 0.94 and 0.81

Q: And the “Growth rate [GR]” value (HEK293T cells [5])?
A: 0.61 and 1.23 and 0.75 and 1.17 and 0.84 and 0.95 and 1.00 and 2.30 and 3.82 and 0.45

Q: What about the activity at 1 µM [6] of the same compound?
A: 99% and 117%

Q: And the “Apoptosis induction [AI]” value (HEK293T cells [7])?
A: 0.86 and 1.10 and 1.13 and 0.75 and 1.01 and 0.84

Q: With `CCN(CC)CCOc1ccc(/C(=C(/Cl)c2ccccc2)c2ccccc2)cc1.Cl` [Enclomiphene hydrochloride] as the compound, how does the “Reason for exclusion: number” value [1] read?
A: > 5 off-targets

Q: Which “Reason for exclusion: number” value [1] does the source give for `CC(=O)O[C@]1(C(C)=O)CC[C@H]2[C@@H]3C[C@H](C)C4=CC(=O)CC[C@]4(C)[C@H]3CC[C@@]21C` [Medroxyprogesterone acetate] here?
A: > 5 off-targets

Q: For `CCC(=C(c1ccc(O)cc1)c1ccc(OCCN(C)C)cc1)c1ccccc1` [(E,Z)-Hydroxytamoxifen], which “Reason for exclusion: number” value [1] is on record?
A: > 5 off-targets

Q: Which “Reason for exclusion: number” value [1] does the source give for `C[C@]12CC[C@@H]3c4ccc(O)cc4CC[C@H]3[C@@H]1CC[C@@H]2O` [17β-Estradiol] here?
A: > 5 off-targets

Q: Which “Reason for exclusion: number” value [1] does the source give for `CC(C)C(=O)Nc1ccc([N+](=O)[O-])c(C(F)(F)F)c1` [Flutamide] here?
A: > 5 off-targets

Q: Which “Reason for exclusion: number” value [1] does the source give for `C[C@]12CCC(=O)C[C@@H]1CC[C@@H]1[C@@H]2CC[C@]2(C)[C@@H](O)CC[C@@H]12` [Dihydrotestosterone] here?
A: > 5 off-targets

Q: Which “Reason for exclusion: number” value [1] does the source give for `COc1ccc2c(c1)c(CC(=O)O)c(C)n2C(=O)c1ccc(Cl)cc1` [Indomethacin] here?
A: > 5 off-targets

Q: Which “Reason for exclusion: number” value [1] does the source give for `C[C@]12C=CC(=O)C=C1CC[C@@H]1[C@@H]2[C@@H](O)C[C@@]2(C)[C@H]1CC[C@]2(O)C(=O)CO` [Prednisolone] here?
A: > 5 off-targets

Q: For `C[C@@H]1C[C@H]2[C@@H]3C[C@H](F)C4=CC(=O)C=C[C@]4(C)[C@@]3(F)[C@@H](O)C[C@]2(C)[C@@]1(OC(=O)c1ccco1)C(=O)SCF` [Fluticasone furoate], which “Reason for exclusion: number” value [1] is on record?
A: > 5 off-targets

Q: Which “Reason for exclusion: number” value [1] does the source give for `CC(=O)S[C@@H]1CC2=CC(=O)CC[C@]2(C)[C@H]2CC[C@@]3(C)[C@@H](CC[C@@]34CCC(=O)O4)[C@H]12` [Spironolactone] here?
A: > 5 off-targets

Q: With `C[C@]12C=CC(=O)C=C1CC[C@H]1[C@@H]3C[C@@H](O)[C@](O)(C(=O)CO)[C@@]3(C)C[C@H](O)[C@@]12F` [Triamcinolone] as the compound, how does the “Reason for exclusion: number” value [1] read?
A: > 5 off-targets

Q: For `C[C@]12CC[C@@H]3c4ccc(OC(=O)c5ccccc5)cc4CC[C@H]3[C@@H]1CC[C@@H]2O` [Estradiol benzoate], which “Reason for exclusion: number” value [1] is on record?
A: > 5 off-targets

Q: For `O=c1c(-c2ccc(O)cc2)coc2cc(O)ccc12` [Daidzein], which “Reason for exclusion: number” value [1] is on record?
A: > 5 off-targets

Q: For `COc1cc([C@@H]2c3cc4c(cc3[C@H](O)[C@H]3COC(=O)[C@H]23)OCO4)cc(OC)c1OC` [Podophyllotoxin], which “Reason for exclusion: number” value [1] is on record?
A: > 5 off-targets

Q: Which “Reason for exclusion: number” value [1] does the source give for `C[C@]12CC[C@H]3[C@@H](CCC4=CC(=O)CC[C@@]43C)[C@@H]1CC[C@@H]2O` [Testosterone] here?
A: > 5 off-targets

Q: Which “Reason for exclusion: number” value [1] does the source give for `C/C=C1/C(=O)C[C@H]2[C@@H]3CCC4=CC(=O)CC[C@]4(C)[C@H]3CC[C@]12C` [E-Guggulsterone] here?
A: > 5 off-targets

Q: For `CC(=O)[C@@]1(O)CC[C@H]2[C@@H]3CCC4=CC(=O)CC[C@]4(C)[C@H]3CC[C@@]21C` [Hydroxyprogesterone], which “Reason for exclusion: number” value [1] is on record?
A: > 5 off-targets

Q: For `C[C@]12CC[C@H](O)CC1=CC[C@@H]1[C@@H]2CC[C@]2(C)C(n3cnc4ccccc43)=CC[C@@H]12` [Galeterone], which “Reason for exclusion: number” value [1] is on record?
A: > 5 off-targets
